Data as given in patent US20240228512A1, “ACYCLIC OXAZEPINE COMPOUNDS COMPRISING A 6-AZA MOIETY AND USES THEREOF” (Genentech, Inc., priority 2022, published 2024).
pIC50: −log10 of the molar value. Read-outs that look alike come from different tables or passages of the source.

How the values were obtained:
[1] = biological target: recombinant human KRAS wild type (SOS1-mediated nucleotide exchange) (Homo sapiens (Human), UniProt P01116); experiment: KRAS biochemical assay, BODIPY-GDP exchange TR-FRET (WT-GDP HTRF)
Chain of recombinant human KRAS wild type (SOS1-mediated nucleotide exchange) (P01116-2 other isoform, or with tags, fused parts or gaps): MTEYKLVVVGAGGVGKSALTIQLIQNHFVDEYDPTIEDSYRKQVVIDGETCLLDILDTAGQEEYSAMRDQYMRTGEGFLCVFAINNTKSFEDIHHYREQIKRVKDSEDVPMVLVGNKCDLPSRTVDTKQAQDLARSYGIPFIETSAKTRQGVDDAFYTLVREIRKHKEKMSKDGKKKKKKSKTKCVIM
Procedure: [Worded in the source for another variant; this variant is reported under the same test.] KRAS Biochemical Assay—BODIPY-GDP Exchange TR-FRET.
Biochemical compound potencies were assessed by evaluating inhibition of SOS1-mediated nucleotide exchange in KRAS G12D. The SOS1-promoted exchange of fluorescently-labeled GDP (BOPIDY-GDP) was monitored by time-resolved fluorescence resonance energy transfer (TR-FRET). Compounds solubilized in DMSO were dispensed as concentration series into 384-well white assay plates. […] The reaction was initiated with the addition of 5 μL of 3 nM recombinant human SOS1 and 300 nM BODIPY-GDP in assay buffer. After a 60-minute incubation, the fluorescence was measured with excitation at 337 nm and emission at 490 and 520 nm. The TR-FRET ratio was determined as the fluorescence at 520 nm divided by the fluorescence at 490 nm multiplied by 10,000. […] The normalized TR-FRET results were plotted against compound concentration, and the data fit to a 4-parameter Hill equation to determine the IC50 values.

H1975 cells = experiment: H1975 CTG proliferation assay; format: cell-based
SW620 PERK = SW620 PERK assay; format: cell-based
SW620 cells = experiment: SW620 3D proliferation assay (CellTiter-Glo); format: cell-based; conditions: SW620, 3D culture, 7 days, read-out: SW620 CTG IC50
Procedure: (§1) SW620 and HPAC 3D proliferation assays.
(§2) Compound potencies were assessed in proliferation assays conducted with SW620 and HPAC cell lines grown in 3D cultures. Cells were seeded into 96- or 384-well ultra-low attachment plates at 3000 or 1000 cells/well, respectively, in culture medium (RPMI-1640, 10% FBS, 2 mM L-glutamine). The plated cells were centrifuged briefly, allowed to rest for 30 minutes under ambient conditions, and cultured overnight at 37° C./5% CO2 to initiate the formation of spheroids. Compound dilutions were prepared across a range of concentrations in DMSO and added to the appropriate wells of the assay plates with a 333-fold dilution into the culture medium. The plates were further incubated for 7 days. The quantity of viable cells was assessed using CellTiter-Glo 3D Cell Viability Assay (Promega). The detection reagent penetrates the spheroids and lyses the cells. The released ATP that was detected with luciferase and a luciferase substrate to generate a luminescent readout. […] The data points were fit to a 4-parameter logistic equation to determine IC50 values.

HPAC cells = experiment: HPAC 3D proliferation assay (CellTiter-Glo); format: cell-based; conditions: 3D culture, 7 days, read-out: HPAC CTG IC50
Procedure: as §1, §2

[2] = biological target: recombinant human mutant KRas G12V (SOS1-mediated nucleotide exchange) (Homo sapiens (Human), UniProt P01116, G12V); experiment: KRAS biochemical assay, BODIPY-GDP exchange TR-FRET (G12V-GDP HTRF)
Chain of recombinant human mutant KRas G12V (SOS1-mediated nucleotide exchange) (P01116-2 other isoform, or with tags, fused parts or gaps G12V): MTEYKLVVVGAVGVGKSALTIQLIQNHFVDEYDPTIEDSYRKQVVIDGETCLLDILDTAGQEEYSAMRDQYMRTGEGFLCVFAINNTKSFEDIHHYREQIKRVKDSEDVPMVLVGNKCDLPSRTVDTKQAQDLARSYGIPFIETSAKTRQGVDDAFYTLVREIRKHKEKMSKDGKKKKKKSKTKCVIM

[3] = Homo sapiens, NCI-H1975, H1975, CTG
[4] = Homo sapiens, SW-620, SW620, PERK

SMILES | pIC50 [1] | pIC50 (H1975 cells; [3]) | pIC50 (SW620 PERK; [4]) | pIC50 (SW620 cells; Homo sapiens, SW-620, 168 h) | pIC50 (HPAC cells; Homo sapiens, 168 h) | pIC50 [2] | pIC50 (H1975 cells; H1975, CTG) | pIC50 (SW620 PERK; SW620, PERK) | pIC50 (SW620 cells) | pIC50 (HPAC cells)
C[C@H](c1cccnc1N)N1CCOc2nc(-c3c(C(F)(F)F)ccc(N)c3Cl)c(F)c3nc(OC[C@@]45CCCN4C[C@H](F)C5)nc1c23 (atropisomer, axis not shown; (aS)) [Example 622a, 3-((R)-1-((R)-5-(3-amino-2-chloro-6-(trifluoromethyl)phenyl)-4-fluoro-2-(((2R,7aS)-2-fluorotetrahydro-1H-pyrrolizin-7a(5H)-yl)methoxy)-8,9-dihydro-10H-7-oxa-1,3,6,10-tetraazacyclohepta[de]naphthalen-10-yl)ethyl)pyridin-2-amine] | 9.24 | 6.12 | 8.49 | 8.29 | 7.40 | 9.72 |  |  |  | 
Cc1cc(N)c(Cl)c(-c2nc3c4c(nc(OC[C@@]56CCCN5C[C@H](F)C6)nc4c2F)N([C@H](C)c2cccnc2N)CCO3)c1C(F)(F)F (single isomer, unassigned) [Example 21a] | 8.53 |  |  |  |  | 8.72 | 6.74 | 7.48 | 8.16 | 6.99
Cc1nc(N)c(Cl)c(-c2nc3c4c(nc(OC[C@@]56CCCN5C[C@H](F)C6)nc4c2F)N([C@H](C)c2cccnc2N)CCO3)c1C(F)(F)F (single isomer, unassigned) [Example 601a] | 9.59 | 7.32 |  | 8.21 |  | 10.15 |  |  |  | 
Cc1nc(N)c(Cl)c(-c2nc3c4c(nc(OC[C@@]56CCCN5C[C@H](F)C6)nc4c2F)N([C@H](C)c2cccnc2N)CCO3)c1C(F)(F)F (single isomer, unassigned) [Example 601b] | 8.50 |  |  |  |  | 9.12 |  |  |  | 
C[C@H](c1cccnc1N)N1CCOc2nc(-c3c(C(F)(F)F)ccc(N)c3Cl)c(F)c3nc(OC[C@@]45CCCN4C[C@H](F)C5)nc1c23 (single isomer, unassigned) [Example 622b] | 8.26 | 5.58 | 7.53 | 7.64 | 6.91 | 8.64 |  |  |  | 
Cc1c(F)c(N)c(F)c(-c2nc3c4c(nc(OC[C@@]56CCCN5C[C@H](F)C6)nc4c2Cl)N([C@H](C)c2cccnc2N)CCO3)c1C(F)(F)F (single isomer, unassigned) [Example 629b] | 7.91 | 6.37 | 6.98 | 7.13 | 6.17 | 8.32 |  |  |  | 
Cc1cc(N)cc(-c2nc3c4c(nc(OC[C@@]56CCCN5C[C@H](F)C6)nc4c2F)N([C@H](C)c2cccnc2N)CCO3)c1C(F)(F)F [Example 3, 3-((R)-1-(5-(5-amino-3-methyl-2-(trifluoromethyl)phenyl)-4-fluoro-2-(((2R,7aS)-2-fluorotetrahydro-1H-pyrrolizin-7a(5H)-yl)methoxy)-8,9-dihydro-10H-7-oxa-1,3,6,10-tetraazacyclohepta[de]naphthalen-10-yl)ethyl)pyridin-2-amine] | 9.98 | 8.02 | 9.23 | 8.94 | 8.06 | 10.10 |  |  |  | 
C#Cc1cccc2cncc(-c3nc4c5c(nc(OC[C@@]67CCCN6C[C@H](F)C7)nc5c3F)N([C@H](C)c3cccnc3N)CCO4)c12 [Example 18, 3-((R)-1-(5-(5-ethynylisoquinolin-4-yl)-4-fluoro-2-(((2R,7aS)-2-fluorotetrahydro-1H-pyrrolizin-7a(5H)-yl)methoxy)-8,9-dihydro-10H-7-oxa-1,3,6,10-tetraazacyclohepta[de]naphthalen-10-yl)ethyl)pyridin-2-amine] | 9.48 | 8.26 | 8.26 | 7.89 | 7.25 | 9.62 |  |  |  | 
C[C@H](c1cccnc1N)N1CCOc2nc(-c3cncc4cccc(Cl)c34)c(F)c3nc(OC[C@@]45CCCN4C[C@H](F)C5)nc1c23 [Example 19, 3-((R)-1-(5-(5-chloroisoquinolin-4-yl)-4-fluoro-2-(((2R,7aS)-2-fluorotetrahydro-1H-pyrrolizin-7a(5H)-yl)methoxy)-8,9-dihydro-10H-7-oxa-1,3,6,10-tetraazacyclohepta[de]naphthalen-10-yl)ethyl)pyridin-2-amine] | 8.16 |  | 6.95 |  |  | 9.07 |  |  |  | 
Cc1cc(N)c(F)c(-c2nc3c4c(nc(OC[C@@]56CCCN5C[C@H](F)C6)nc4c2F)N([C@H](C)c2nccnc2N)CCO3)c1C(F)(F)F [Example 23, 3-((1R)-1-(5-(3-amino-2-fluoro-5-methyl-6-(trifluoromethyl)phenyl)-4-fluoro-2-(((2R,7aS)-2-fluorotetrahydro-1H-pyrrolizin-7a(5H)-yl)methoxy)-8,9-dihydro-10H-7-oxa-1,3,6,10-tetraazacyclohepta[de]naphthalen-10-yl)ethyl)pyrazin-2-amine] |  | 7.49 | 8.13 | 7.50 | 7.04 |  |  |  |  | 
Cc1c(F)c(N)cc(-c2nc3c4c(nc(OC[C@@]56CCCN5C[C@H](F)C6)nc4c2Cl)N([C@H](C)c2cccnc2N)CCO3)c1C(F)(F)F [Example 32, 3-((R)-1-(5-(5-amino-4-fluoro-3-methyl-2-(trifluoromethyl)phenyl)-4-chloro-2-(((2R,7aS)-2-fluorotetrahydro-1H-pyrrolizin-7a(5H)-yl)methoxy)-8,9-dihydro-10H-7-oxa-1,3,6,10-tetraazacyclohepta[de]naphthalen-10-yl)ethyl)pyridin-2-amine] |  | 8.15 | 8.61 | 8.65 | 7.73 |  |  |  |  | 
Cc1c(F)c(N)cc(-c2nc3c4c(nc(OC[C@@]56CCCN5C[C@H](F)C6)nc4c2F)N([C@H](C)c2cccnc2N)CCO3)c1CC(F)F [Example 612, 3-((R)-1-(5-(5-amino-2-(2,2-difluoroethyl)-4-fluoro-3-methylphenyl)-4-fluoro-2-(((2R,7aS)-2-fluorotetrahydro-1H-pyrrolizin-7a(5H)-yl)methoxy)-8,9-dihydro-10H-7-oxa-1,3,6,10-tetraazacyclohepta[de]naphthalen-10-yl)ethyl)pyridin-2-amine] |  | 5.60 | 7.81 | 7.55 | 6.44 |  |  |  |  | 
C[C@H](c1cccnc1N)N1CCOc2nc(-c3c(C(F)(F)F)cc(F)c(N)c3F)c(F)c3nc(OC[C@@]45CCCN4C[C@H](F)C5)nc1c23 [Example 621, 3-((1R)-1-(5-(3-amino-2,4-difluoro-6-(trifluoromethyl)phenyl)-4-fluoro-2-(((2R,7aS)-2-fluorotetrahydro-1H-pyrrolizin-7a(5H)-yl)methoxy)-8,9-dihydro-10H-7-oxa-1,3,6,10-tetraazacyclohepta[de]naphthalen-10-yl)ethyl)pyridin-2-amine] |  | 7.01 | 7.66 | 7.51 | 6.47 |  |  |  |  | 
Cc1c(F)c(N)c(F)c(-c2nc3c4c(nc(OC[C@@H]5CCCN5C)nc4c2F)N([C@H](C)c2cccnc2N)CCO3)c1C(F)(F)F [Example 624, 3-((1R)-1-(5-(3-amino-2,4-difluoro-5-methyl-6-(trifluoromethyl)phenyl)-4-fluoro-2-(((S)-1-methylpyrrolidin-2-yl)methoxy)-8,9-dihydro-10H-7-oxa-1,3,6,10-tetraazacyclohepta[de]naphthalen-10-yl)ethyl)pyridin-2-amine] |  | 6.44 | 8.25 | 7.94 | 7.15 |  |  |  |  | 
C[C@H](c1cccnc1N)N1CCOc2nc(-c3c(F)ccc4cnn(C)c34)c(F)c3nc(OC[C@@]45CCCN4C[C@H](F)C5)nc1c23 [Example 634, 3-((1R)-1-(4-fluoro-5-(6-fluoro-1-methyl-1H-indazol-7-yl)-2-(((2R,7aS)-2-fluorotetrahydro-1H-pyrrolizin-7a(5H)-yl)methoxy)-8,9-dihydro-10H-7-oxa-1,3,6,10-tetraazacyclohepta[de]naphthalen-10-yl)ethyl)pyridin-2-amine] |  | 5.44 | 7.07 | 6.21 | 5.76 |  |  |  |  | 
